Here are results for nine compounds from the NIST ThermoML archive (doi:10.1021/je700088n).

± gives the expanded uncertainty stated by the source.

The conditions of series [1]: Crystal; for Normal melting temperature: DTA; for mass density: 298.1 K, 101.33 kPa, digital densimeter.
The nature of series [2]: Molar enthalpy of transition or fusion. The conditions noted are these: Crystal; DSC.

Turning to `Cc1cccc2ccccc12` [1-methylnaphthalene], the Normal melting temperature in series [1] was -30.9 ± 0.5 °C.

As for `Cc1ccc2ccc(C)cc2c1` [2,7-dimethylnaphthalene], in series [1], the mass density worked out at 1010 ± 10 kg/m3 and the Normal melting temperature turned out to be 97.00 ± 0.5 °C. The “Molar enthalpy of transition or fusion” value in series [2] was determined as 22.2 ± 0.66 kJ/mol.

`Cc1ccc(C)c2ccccc12` [1,4-dimethylnaphthalene]: the Normal melting temperature in series [1] was 6.00 ± 0.5 °C. The “Molar enthalpy of transition or fusion” value in series [2] came to 10.6 ± 0.37 kJ/mol.

`Cc1cccc2c(C)cccc12` [1,5-dimethylnaphthalene]: the Normal melting temperature in series [1] was determined as 82.00 ± 0.5 °C. The “Molar enthalpy of transition or fusion” value in series [2] stood at 20 ± 0.6 kJ/mol.

Turning to `Cc1cccc2cccc(C)c12` [1,8-dimethylnaphthalene], the Normal melting temperature in series [1] stood at 65.00 ± 0.5 °C. The “Molar enthalpy of transition or fusion” value in series [2] was found to be 18.5 ± 0.56 kJ/mol.

Take `Cc1ccc2cc(C)ccc2c1` [2,6-dimethylnaphthalene]: in series [1], the mass density is listed as 1021 ± 10 kg/m3 and the Normal melting temperature was determined as 112.00 ± 0.5 °C. Besides, in series [2], the “Molar enthalpy of transition or fusion” value is 25.3 ± 0.73 kJ/mol.

`Cc1ccc2c(C)cccc2c1` [1,6-dimethylnaphthalene]: the Normal melting temperature in series [1] is -16.20 ± 0.5 °C. Further, the “Molar enthalpy of transition or fusion” value in series [2] was 8.5 ± 0.31 kJ/mol.

Take `Cc1ccc2ccccc2c1` [2-methylnaphthalene]: the Normal melting temperature in series [1] was 34.70 ± 0.5 °C.

For the compound `Cc1cc2ccccc2cc1C` [2,3-dimethylnaphthalene], in series [1], the mass density is given as 1012 ± 10 kg/m3 and the Normal melting temperature came to 104.00 ± 0.5 °C. In addition, the “Molar enthalpy of transition or fusion” value in series [2] was determined as 24 ± 0.7 kJ/mol.

Broadly, the mass density is mass per unit of volume.
